Where two headings read alike, the source gives them in different places.
Key:
[1] = Cytotoxicity in mock-infected H1-HeLa cells (antirhinoviral assay, XTT); format: cell-based; settings: human, 50% cytotoxic dose
Description: (§1) H1-HeLa cells were infected with HRV-14 at a multiplicity of infection (m.o.i.) of 0.13 (virus particles/cell) or mock-infected with medium only. Infected or mock-infected cells were resuspended at 8×10^5 cells per mL, and incubated with appropriate concentrations of the compounds to be tested. Two days later, XTT/PMS was added to test plates and the amount of formazan produced was quantified spectrophotometrically at 450/650 nm. The EC50 value was calculated as the concentration of compound that increased the percentage of formazan production in compound-treated, virus-infected cells to 50% of that produced by compound-free, mock-infected cells. The 50% cytotoxic dose (CC50) was calculated as the concentration of compound that decreased the percentage of formazan produced in compound-treated, mock-infected cells to 50% of that produced by compound-free, mock-infected cells. The therapeutic index (TI) was calculated by dividing the CC50 value by the EC50 value.
(§2) All strains of human rhinovirus (HRV) for use in this assay were purchased from American Type Culture Collection (ATCC), except for HRV serotype-14 (produced from the infectious cDNA clone constructed by Dr. Robert Rueckert, Institute for Molecular Virology, University of Wisconsin, Madison, Wis.). HRV stocks were propagated and viral assays were performed in H1-HeLa cells (ATCC). Cells were grown in minimal essential medium with 10% fetal bovine serum, available from Life Technologies (Gaithersburg, Md.).

HRV-14 = experiment: Antirhinoviral H1-HeLa cell culture assay (XTT), HRV-14; format: cell-based, human rhinovirus
Description: Antirhinoviral H1-HeLa Cell Culture Assay
In this cell protection assay, the ability of compounds to protect cells against HRV infection was measured by the XTT dye reduction method, which is described in Weislow et al., J. Natl. Cancer Inst. 1989, vol. 81, 577-586.
as §1, §2
The compounds were tested against control compounds WIN 51711, WIN 52084, and WIN 54954 (obtained from Sterling-Winthrop Pharmaceuticals), Pirodavir (obtained from Janssen Pharmaceuticals), and Pleconaril (prepared according to the method described in Diana et al., J. Med. Chem 1995, vol. 38, 1355). Antiviral data obtained for the test compounds are shown in Tables 1 and 3, where all data are for HRV serotype-14 unless otherwise noted in parentheses.

[2] = HRV serotype-14, H1-HeLa cells (Table 1), read-out: Cell Protection EC50
[3] = HRV serotype-14, H1-HeLa cells (Table 3), read-out: EC50

Row | Compound | CC50 at 2 days [1] [µM] | further results
1 | CCOC(=O)/C=C/[C@H](CN1CCNC1=O)NC(=O)[C@H](Cc1ccccc1)NC(=O)[C@H](CC(C)C)NC(=O)OCc1ccccc1 | – | melting point: 161 to 164 °C
2 | CCOC(=O)/C=C/[C@H](CCC(N)=O)NC(=O)[C@H](Cc1ccccc1)NC(=O)[C@H](CC(C)C)NC(=O)c1cc(C)on1 [(A-1), Ethyl-3-((5′-Methylisoxazole-3′-carbonyl)-L-Leu-L-Phe-L-Gln)-E-Propenoate] | > 100 | melting point: 223 to 225 °C
3 | CCOC(=O)/C=C/[C@H](CCC(N)=O)NC(=O)[C@H](Cc1ccccc1)NC(=O)[C@H](CC(C)C)NC(=O)c1ccno1 [(A-2), Ethyl-3-((Isoxazole-5′-carbonyl)-L-Leu-L-Phe-L-Gin)-E-Propenoate] | > 100 | –
4 | CCOC(=O)/C=C/[C@H](CCC(N)=O)NC(=O)[C@H](Cc1ccc(C)cc1)NC(=O)[C@@H](NC(=O)c1cc(C)on1)C(C)(C)C [(A-3), Ethyl-3-((5′-Methylisoxazole-3′-carbonyl)-L-α-(t-Butyl-Gly)-L-(4-Me-Phe)-L-Gln)-E-Propenoate] | > 10 | –
5 | CCOC(=O)/C=C/[C@H](CCC(N)=O)NC(=O)[C@H](Cc1ccc(F)cc1)NC(=O)[C@@H](NC(=O)c1cc(C)on1)C(C)(C)C [(A-4), Ethyl-3-((5′-Methylisoxazole-3′-carbonyl)-L-α-(t-Butyl-Gly)-L-(4-F-Phe)-L-Gln)-E-Propenoate] | > 100 | –
6 | CCOC(=O)/C=C/[C@H](CCC(N)=O)NC(=O)[C@H](Cc1ccc(F)cc1)NC(=O)[C@@H](NC(=O)c1cc(C)on1)C(C)C [(A-6), Ethyl-3-[(5′-Methylisoxazole-3′-carbonyl)-L-Val-L-(4-F-Phe)-L-Gln]-E-Propenoate] | > 100 | –
7 | CCOC(=O)/C=C/[C@H](CCC(N)=O)NC(=O)[C@H](Cc1ccc(F)cc1)N(C)C(=O)[C@H](Cc1c[nH]cn1)NC(=O)c1cc(C)on1 [(A-9), Ethyl-3-{(5′-Methylisoxazole-3′-carbonyl)-L-His-NCH3-L-(4-F-Phe)-L-Gln}-E-Propenoate] | > 100 | –
8 | CCOC(=O)/C=C/[C@H](CCC(N)=O)NC(=O)[C@H](Cc1ccccc1)N(C)C(=O)[C@H](CC(C)C)NC(=O)c1cc(C)on1 [(A-10), Ethyl-3-((5′-Methylisoxazole-3′-carbonyl)-L-Leu-NCH3-L-Phe-L-Gln}-E-Propenoate] | > 100 | EC50 (HRV-14; Rhinovirus B, HRV14, HRV serotype-14, H1-HeLa cells (Table 1), read-out: Cell Protection EC50): 140 nM; EC50 (HRV-14; Rhinovirus B, HRV14, HRV serotype-14, H1-HeLa cells (Table 3), read-out: EC50): 140 nM
9 | CCOC(=O)/C=C/[C@H](CCC(N)=O)NC(=O)[C@H](Cc1ccc(F)cc1)N(C)C(=O)[C@H](Cc1ccc2ccccc2c1)NC(=O)c1cc(C)on1 [(A-11), Ethyl-3-{(5′-Methylisoxazole-3′-carbonyl)-L-(2-Naphth)-NCH3-L-(4-F-Phe)-L-Gln}-E-Propenoate] | 50 | –
10 | CCOC(=O)/C=C/[C@H](CCC(N)=O)NC(=O)[C@H](Cc1ccc(F)cc1)N(C)C(=O)[C@H](CC(C)C)NC(=O)c1cc(C)on1 [(A-12), Ethyl-3-{(5′-Methylisoxazole-3′-carbonyl)-L-Leu-NCH3-L-(4-F-Phe)-L-Gln}-E-Propenoate] | > 100 | –
11 | CCOC(=O)/C=C/[C@H](CCC(N)=O)NC(=O)[C@H](Cc1ccc(F)cc1)N(C)C(=O)[C@H](Cc1cccc2ccccc12)NC(=O)c1cc(C)on1 [(A-13), Ethyl-3-{(5′-Methylisoxazole-3′-carbonyl)-L-(1-Naphth)-NCH3-L-(4-F-Phe)-L-Gln}-E-Propenoate] | > 10 | –
12 | CCOC(=O)/C=C/[C@H](CCC(N)=O)NC(=O)[C@H](Cc1ccccc1)NC(=O)[C@@H](NC(=O)c1cccs1)C(C)(C)C [(A-14)] | – | EC50 (HRV-14; [2]): 480 nM; EC50 (HRV-14; [3]): 480 nM
13 | CC(C)[C@H](NC(=O)C1SCCS1)C(=O)N[C@@H](Cc1ccc(F)cc1)C(=O)N[C@H](/C=C/C(=O)OCc1cccnc1)CCC(N)=O [(A-18)] | – | EC50 (HRV-14; [2]): 1500 nM; EC50 (HRV-14; [3]): 1500 nM
14 | CCOC(=O)/C=C/[C@H](CCC(N)=O)NC(=O)[C@H](Cc1ccccc1)NC(=O)[C@H](CC(C)C)NC(=O)[C@@H]1C=CCN1 [(A-19)] | – | EC50 (HRV-14; [2]): 25100 nM; EC50 (HRV-14; [3]): 25100 nM
15 | CCOC(=O)/C=C/[C@H](CCC(N)=O)NC(=O)[C@H](Cc1ccccc1)NC(=O)[C@H](CC(C)C)NC(=O)c1cc(C)oc1C [(A-20)] | – | EC50 (HRV-14; [2]): 12600 nM; EC50 (HRV-14; [3]): 12600 nM
16 | CCOC(=O)/C=C/[C@H](CCC(N)=O)NC(=O)[C@H](Cc1ccccc1)NC(=O)[C@H](CC(C)C)NC(=O)c1nc(C)c[nH]1 [(A-21)] | – | EC50 (HRV-14; [2]): 2500 nM; EC50 (HRV-14; [3]): 2500 nM
17 | CCOC(=O)/C=C/[C@H](C[C@@H]1CCNC1=O)NC(=O)[C@H](Cc1ccccc1)NC(=O)[C@H](CC(C)C)NC(=O)OCc1ccccc1 [(A-24), Ethyl-3-{Cbz-L-Leu-L-Phe-L-((S)-Pyrrol-Ala)}-E-Propenoate] | > 100 | –
18 | CCOC(=O)/C=C/[C@H](C[C@@H]1CCNC1=O)NC(=O)[C@H](Cc1ccccc1)NC(=O)[C@@H](NC(=O)OCc1ccccc1)C(C)C [(A-25), Ethyl-3-{Cbz-L-Val-L-Phe-L-((S)-Pyrrol-Ala)}-E-Propenoate] | > 100 | –
19 | CCOC(=O)/C=C/[C@H](C[C@@H]1CCCNC1=O)NC(=O)[C@H](Cc1ccccc1)NC(=O)[C@H](CC(C)C)NC(=O)OCc1ccccc1 [(A-26), Ethyl-3-{Cbz-L-Leu-L-Phe-L-((S)-Piper-Ala)}-E-Propenoate] | > 100 | –
20 | CCOC(=O)/C=C/[C@H](C[C@H]1CCNC1=O)NC(=O)[C@H](Cc1ccccc1)NC(=O)[C@H](CC(C)C)NC(=O)OCc1ccccc1 [(A-27), Ethyl-3-{Cbz-L-Leu-L-Phe-L-((R)-Pyrrol-Ala)}-E-Propenoate] | > 100 | –
21 | CCOC(=O)/C=C/[C@H](CCC(N)=O)NC(=O)[C@@H](CC(=O)[C@@H](NC(=O)c1cc(C)on1)C(C)C)Cc1ccc(F)cc1 [(B-1), Ethyl-3-{(5′-Methylisoxazole-3′-carbonyl)-L-ValΨ(COCH2)-L-(4-F-Phe)-L-Gln}-E-Propenoate] | > 100 | melting point: 220 °C (dec.)
22 | Cc1cc(C(=O)N[C@H](C(=O)C[C@@H](Cc2ccc(F)cc2)C(=O)N[C@H](/C=C2\CCOC2=O)C[C@@H]2CCNC2=O)C(C)C)no1 [(B-3), 2-{(5′-Methylisoxazole-3′-carbonyl)-L-ValΨ(COCH2)-L-(4-F-Phe)-L-((S)-Pyrrol-Ala)}-E-(α-Vinyl-γ-Butyrolactone)] | > 100 | –
23 | CCOC(=O)/C=C/[C@H](C[C@@H]1CCCNC1=O)NC(=O)[C@@H](CC(=O)[C@@H](NC(=O)c1cc(C)on1)C(C)C)Cc1ccc(F)cc1 [(B-4), Ethyl-3-{(5′-Methylisoxazole-3′-carbonyl)-L-ValΨ(COCH2)-L-(4-F-Phe)-L-((S)-Piper-Ala)}-E-Propenoate] | > 100 | –
24 | CCOC(=O)/C=C/[C@H](CCC(N)=O)NC(=O)[C@H](Cc1ccc(F)cc1)OC(=O)[C@@H](NC(=O)c1cc(C)on1)C(C)C [(C-1), Ethyl-3-{(5′-Methylisoxazole-3′-carbonyl)-L-Val-O-L-(4-F-Phe)-L-Gln}-E-Propenoate] | > 10 | –
25 | CCOC(=O)/C=C/[C@H](C[C@@H]1CCNC1=O)NC(=O)[C@H](Cc1ccc(F)cc1)OC(=O)[C@@H](NC(=O)c1cc(C)on1)C(C)C [(C-2), Ethyl-3-{(5′-Methylisoxazole-3′-carbonyl)-L-Val-O-L-(4-F-Phe)-L-((S)-Pyrrol-Ala)}-E-Propenoate] | > 10 | –
26 | CC(C)C[C@H](NC(=O)OCc1ccccc1)C(=O)N[C@@H](Cc1ccccc1)C(=O)N[C@H](/C=C/c1ccno1)CCC(N)=O [Comparison Compound #1, 5-(3′-(Cbz-L-Leu-L-Phe-L-Gln)-E-Propene)-Isoxazole, reference compound] | > 320 | –
27 | CCOC(=O)/C=C/[C@H](CCC(N)=O)NC(=O)[C@H](Cc1ccccc1)NC(=O)[C@H](CC(C)C)NC(=O)OCc1ccccc1 [Comparison Compound #2, Ethyl-3-(Cbz-L-Leu-L-Phe-L-Gln)-E-Propenoate] | > 320 | melting point: 219 to 221 °C
